Test results from US20110275573A1, “TISSUE ADHESIVE” (METAMOREFIX LTD., priority 2008, published 2011).
“Also recorded” adds a separate entry of the source.

Tests used:
[1] = tested on: human foreskin fibroblasts (FF1); assay: Cell attachment assay in monolayers (peptide-coated Sepharose beads); assay type: cell-based
Description: (§1) A peptide solution in coupling buffer prepared as above was immediately added to the activated Sepharose beads Sepharose beads were used to fixate the peptides for all in-vitro assays in the column to a final binding of 6 mg peptide per ml gel. The column was closed and shaken overnight at 4° C. very gently to avoid mechanical breakage of the beads. The bottom cap of the column was removed and the solution of ligand/buffer was collected as the Sepharose Beads settled on the filter. The OD280 of the collected buffer was checked to determine the concentration of uncoupled peptide. The gel was washed/aspirated with 5 volumes (˜2 ml) of coupling buffer and gently mixed. Any remaining active groups on the gel were blocked with blocking buffer for 2 hours at room temperature or overnight at 4° C. The Sepharose beads gel with peptides was then washed by 2 cycles each of 5 gel volumes of: • a. 0.1 M Acetate buffer • b. Coupling buffer • c. Storing buffer: azide-coupling buffer: coupling buffer containing 0.1% NaN3 (final concentration)
(§2) The tested peptides (Table 1) were coupled to Sepharose Beads at two concentrations: 6 and 12 mg/ml Sepharose Beads. Sepharose Beads that underwent the coupling procedure without peptide addition (“naked Sepharose Beads”) served as a negative control (referred to herein as “Sepharose Beads-blank”). A cell binding assay was performed with 2 normal cell types: bovine aortal endothelial cells (BAEC) and human foreskin fibroblasts (FF1). Sepharose beads were added to 12 well culture plates with sub-confluent monolayer of the cultured cells (100-300 beads were added to each well). The fraction of Sepharose beads attached to the monolayer was determined at different times.

[2] = tested on: bovine aortal endothelial cells (BAEC); assay: as above; assay type: cell-based; details: for cell binding activity (BAEC), in words: 6 mg/ml
Description: as §1, §2

[3] = FIG. 3a, concentration not given

GGWTVFQRRMDGSVDFYRK [M-Fic-K]
cell binding activity (FF1), in words ([1]; 6 mg peptide/ml): dramatic change in activity

GGWTVFQRRVDGSVDFYRK [M-Fic]
binding rate of BAEC at the lower concentration ([2]; 6 mg/ml compared with 12 mg/ml, FIG. 9): slight decrease
Nomarsky optic microscopy of peptide coated beads attached to endothelial cells (BAEC) ([2]; 3 weeks of incubation, x100, FIG. 12): formation of small tubes
activity in forming bead-cell aggregates and tube like structures ([2]; longer incubation times, FIGS. 10-12): highest activity
cell binding activity (FF1), in words ([1]; 6 mg peptide/ml): initially inferior to the positive control; also recorded: retains its activity
cell binding activity (FF1), in words ([1]; 6 mg peptide/ml, listed as M-fic): retain most of its activity
time to reach saturated cell binding ([1]; 6 mg/ml, FF1): ≤ 24 h
Nomarsky optic microscopy of peptide coated beads attached to FF1 ([1]; after 3 days of incubation, x100, FIG. 10): aggregates of cells and beads formed
time to saturated attachment ([1]; conclusions, cell type and concentration not stated): 72 h

KGYKYSYKGGWTVFQRRMDGSVDFYR [C-M-Fic2]
cell binding of FF1 reached [1, 3]: 100%
kinetic profile of cell binding of FF1 [1, 3]: good kinetic profile of cell binding (fast attachment)

KGYKYSYKGGWTVFQRRMDGSVDFYRK [C-M-Fic2-K, C-M-Fic2 with the addition of a lysine group]
cell binding of FF1 reached [1, 3]: 100%
kinetic profile of cell binding of FF1 [1, 3]: good kinetic profile of cell binding (fast attachment)

KGYKYSYKVSEMKFQRRMDGSVDFYRK [C-M-Fic-a-K]
rate/kinetics of cell binding of FF1 compared with positive control PreC ([1]; 6 mg peptide/ml, FIG. 1, FIG. 2): accelerated the kinetics of cell binding

KGYKYSYKVSEMKVRPAK [C-Fic-a-K]
cell binding of FF1 reached ([1]; 6 mg peptide/ml, FIG. 1): 100%

KGYNYSYKSEMKVRPAK [C-Fic, b25 prints …]
extent of cell binding ([2]; 6 mg peptide/ml, after 96 hours of incubation, cell type not stated (FF1 or BAEC)): about 30%
cell binding activity (BAEC), in words [2]: completely looses reactivity
cell binding activity (BAEC), in words ([2]; listed as C-fic): did not attach; also recorded: some activity
cell binding activity (FF1), in words ([1]; 6 mg peptide/ml): no reactivity
cell binding activity (FF1), in words ([1]; 6 mg peptide/ml, listed as C-fic): did not attach; also recorded: looses its activity; also recorded: inactive
cell binding of FF1 reached ([1]; 12 mg peptide/ml, after 150 hours (FIG. 4b)): 100%

KTRWYSMKKTTMKIIPFNR [PreC, positive control peptide, reference compound]
cell binding of FF1 reached ([1]; 6 mg peptide/ml, FIG. 1): 100%
